Reference: US20080161273A1, “Method of Using Adapalene in Acne Maintenance Therapy” (GALDERMA RESEARCH & DEVELOPMENT, priority 2004, published 2008)
Where two headings read alike, the source gives them in different places.

What was measured:
acne vulgaris = assay: 16-week maintenance therapy study after adapalene-doxycycline combination therapy: efficacy (maintenance rate, lesion counts, global severity); format: in vivo, human
Text: The efficacy and safety of the adapalene gel 0.1% (Galderma Laboratories, LP, Ft. Worth, Tex.) as a maintenance therapy were compared to gel vehicle in a randomized, multicenter, vehicle-controlled, investigator-blind, parallel group study conducted at 34 centers in the United States between Nov. 13, 2003 and May 25, 2004. This study was designed to set a high threshold for achieving success. […] These subjects were re-randomized consecutively in a 1:1 ratio to receive either adapalene gel 0.1% or adapalene gel vehicle once-daily in the evening for an additional 16 weeks. Subjects were stratified by the treatment assignment received in the previous study using an interactive voice responsive system. The randomization schedule remained blinded from those involved in the clinical conduct of the study. The integrity of the blinding was ensured by packaging the topical medication in identical tubes and requiring a third party other than the investigator/evaluator to dispense the medication. Exclusion criteria prohibited enrollment of subjects with acne requiring isotretinoin therapy or other dermatologic conditions requiring interfering treatment. Women were excluded if they were pregnant, nursing, or planning a pregnancy as were men with facial hair that would interfere with the assessments. Subjects were provided Cetaphil® daily facial moisturizer SPF 15 (Galderma Laboratories, LP., Ft Worth, Tex.) to use as needed for the symptomatic relief of skin dryness or irritation. Evaluations for this study occurred at baseline and at weeks 4, 8, 12, and 16. The final visit from the previous 12-week combination study served as the baseline visit for this 16-week maintenance study. The primary efficacy variable was the failure rate at week 16, defined as the percentage of subjects unable to maintain 50% of total lesion count improvement from the previous 12-week combination therapy study (e.g., a subject entering the maintenance phase after having lost 40 lesions in the combination study was considered as a failure if the lesion count at the end of the maintenance study was increased by more than 20 lesions). Data from this assessment is presented graphically herein as a maintenance rate, which is simply 100% minus the failure rate. Secondary efficacy variables included lesion counts (total, inflammatory and non inflammatory), failure rates for inflammatory and non-inflammatory lesions, as well as global severity and global improvement of the disease. At the last visit, subject satisfaction was assessed via a 5-question survey. All data analyses were carried out according to a pre-established analysis plan. A sample size of 113 subjects per group was deemed necessary to detect a statistically significant difference in failure rate between treatment groups based on the use of a 2-tailed test with […] and a power of 90%; an assumption of a 15% efficacy difference between the 2 treatment groups; and a dropout rate of 10%. Three study populations were analyzed. The safety population was defined as all patients randomized and treated at least once. The intent-to-treat (ITT) population included all randomized subjects who were dispensed study medication. The per-protocol (PP) population included all randomized subjects without any major protocol deviations. […] Analyses for efficacy were performed on week 16 data for the ITT population and the PP population. Last observation carried forward (LOCF) methodology was used to account for missing data for the ITT population analysis (lesion counts). In addition, all subjects with missing data at week 16 were considered failures for the failure rate analysis (worst case). Age was tested at baseline with the analysis of variance (ANOVA) model with treatment, center, and their interaction as factors. All other variables were analyzed by using the Cochran-Mantel-Haenzsel (CMH) test controlling for “analysis center” and previous treatment for both the ITT and PP populations. […]

[1] = 5-question subject satisfaction survey at last visit of the maintenance study; format: in vivo, human; conditions: P=0.94 vs vehicle
Text: The primary efficacy variable was the failure rate at week 16, defined as the percentage of subjects unable to maintain 50% of total lesion count improvement from the previous 12-week combination therapy study (e.g., a subject entering the maintenance phase after having lost 40 lesions in the combination study was considered as a failure if the lesion count at the end of the maintenance study was increased by more than 20 lesions). Data from this assessment is presented graphically herein as a maintenance rate, which is simply 100% minus the failure rate. Secondary efficacy variables included lesion counts (total, inflammatory and non inflammatory), failure rates for inflammatory and non-inflammatory lesions, as well as global severity and global improvement of the disease. At the last visit, subject satisfaction was assessed via a 5-question survey.

[2] = 16-week maintenance therapy study: safety, local facial tolerability, adverse events, discontinuation; format: in vivo, human
Text: The efficacy and safety of the adapalene gel 0.1% (Galderma Laboratories, LP, Ft. Worth, Tex.) as a maintenance therapy were compared to gel vehicle in a randomized, multicenter, vehicle-controlled, investigator-blind, parallel group study conducted at 34 centers in the United States between Nov. 13, 2003 and May 25, 2004. This study was designed to set a high threshold for achieving success. […] These subjects were re-randomized consecutively in a 1:1 ratio to receive either adapalene gel 0.1% or adapalene gel vehicle once-daily in the evening for an additional 16 weeks. Subjects were stratified by the treatment assignment received in the previous study using an interactive voice responsive system. The randomization schedule remained blinded from those involved in the clinical conduct of the study. The integrity of the blinding was ensured by packaging the topical medication in identical tubes and requiring a third party other than the investigator/evaluator to dispense the medication.
Safety and tolerability were assessed through evaluations of local facial tolerability and adverse events. At each visit, the investigator rated erythema, scaling, dryness, and stinging/burning on a scale ranging from 0 (none) to 3 (severe). Mean scores at each postbaseline visit and worst score (worst observation recorded for a subject during the post-baseline period) were recorded. Adverse events were also evaluated at each visit.
Three study populations were analyzed. The safety population was defined as all patients randomized and treated at least once. The intent-to-treat (ITT) population included all randomized subjects who were dispensed study medication. The per-protocol (PP) population included all randomized subjects without any major protocol deviations.

[3] = applied as monotherapy, versus tazarotene and tretinoin formulations, cited from earlier work

SMILES: COc1ccc(-c2ccc3cc(C(=O)O)ccc3c2)cc1C12CC3CC(CC(C3)C1)C2 [adapalene, 6-[3-(1-adamantyl)-4-methoxyphenyl]-2-naphtoic acid]
- lesion counts during the course of the study versus baseline (acne vulgaris; 16 weeks, vehicle group gradually increased): remained stable or decreased
- subjects "clear" or "almost clear" in global severity assessment (acne vulgaris; P=0.005 for distribution of severity scores vs vehicle): 27%
- global assessment of improvement versus vehicle (acne vulgaris; P=0.01): significant advantages
- total lesion counts relative to vehicle (acne vulgaris; end point week 16, ITT, LOCF, P=0.005): significantly lower
- inflammatory lesion counts relative to vehicle (acne vulgaris; end point week 16, ITT, LOCF, P=0.01): significantly lower
- noninflammatory lesion counts relative to vehicle (acne vulgaris; end point week 16, ITT, LOCF, P=0.02): significantly lower
- maintenance rate, total lesion counts (subjects maintaining at least 50% of improvement from previous combination study) (acne vulgaris; week 16, ITT, worst case (missing data = failure), once-daily for 16 weeks, P<0.001 vs vehicle): 75%
- subjects not bothered by side effects [1]: 90%
- overall safety and tolerability ([2]; 16-week study): safe and well tolerated
- subjects experiencing adverse events ([2]; 16-week study): 25%
- subjects with treatment-related adverse events (percentage) ([2]; 16-week study): 2.4%
- subjects with treatment-related adverse events (number) ([2]; 16-week study, 126 subjects in group): 3 subjects
- mean worst score for each local cutaneous tolerability variable, large majority of subjects ([2]; scale none, mild, moderate, severe): none or mild
- tolerability / cutaneous irritation profile versus other topical retinoids [3]: more favorable cutaneous irritation profile
- tolerability / cutaneous irritation profile versus other topical retinoids ([3]; listed as Adapalene): more favorable tolerability profile
